Key:
[1] = test system: antiserum raised to Immunogen II (Hapten B-BTG); experiment: Competitive ELISA microtiter plate assay (Example 19), antiserum raised to Immunogen II, Hapten A-HRP conjugate as detection reagent; assay type: binding, sheep
Protocol: Aqueous solutions of the immunogens prepared in examples 5 and 13 were formulated with Freund's Complete Adjuvant (FCA) to form emulsions consisting of 2mg/ml Immunogen I and 2mg/ml of Immunogen II in 50%(v/v) FCA. Three sheep were immunised with each emulsion (1° immunisations), 0.25ml being intramuscularly injected at four sites in the rump of each animal. Subsequent immunisations (boosts 2-8) contained 1mg/ml Immunogen I and 1mg/ml Immunogen II. All boosts were emulsified in 50%(v/v) Freund's Incomplete Adjuvant (FIA) and administered to the appropriate sheep in the same manner as the 1° immunisations, at monthly intervals. Blood sampling took place 7-14 days after each boost. Each sample was processed to produce antiserum, which was further purified by caprylic acid and ammonium sulphate precipitation to yield an immunoglobulin (Ig) fraction. The Ig fraction was evaluated by competitive ELISA microtiter plate assay, as described in example 19 below.
Example 19: Development of competitive ELISA for JWH synthetic cannabinoids and metabolites. • (a) The wells of an enhanced binding 96 well polystyrene microtiter plate were coated with the Ig fraction of the antiserum raised to Immunogen I (Hapten A-BTG - example 5) and diluted in 10mM Tris, pH8.5 (125µl/well). The appropriate antibody coating concentration was determined using standard ELISA checkerboard techniques. The plate was incubated for 2 hours at 37°C, washed 4 times over a 10-minute period with Tris buffered saline containing Tween 20 (TBST) and tapped dry. Standard solutions of JWH synthetic cannabinoids, metabolites and selected molecules were prepared in TBST and 50µl of each was added to the appropriate wells. 75µl of conjugate (Hapten A-HRP) diluted in Tris buffer containing EDTA, D-mannitol, sucrose, thimerosal and BSA, was added to each of the wells. The appropriate dilution of conjugate was also determined using standard ELISA checkerboard techniques. The plate was incubated at 25°C for 1 hour. The excess unbound conjugate was removed by washing 6 times over a 10-minute period with TBST and tapped dry. 125µl of tetramethylbenzedine (TMB) substrate solution was added to each well of the plate that was then incubated for 15-20 minutes in the dark at room temperature. The reaction was terminated by addition of 125µl of 0.2M sulphuric acid to each well. The absorbance was then measured at 450nm using a microtiter plate reader. Employing each series of standards, calibration curves were generated and these were used to determine the specificity of the immunoassay for the JWH synthetic cannabinoids, metabolites and selected molecules. The results of this study are presented in Tables 1 to 3, cross-reactivity being calculated according to the following formula: %CR = […] /IC50,CR X 100 [formula] Where %CR is the percentage cross-reactivity, IC50, YWH-018 is the concentration of JWH-018 that causes 50% displacement of signal and IC50, CR is the concentration of JWH synthetic cannabinoid/metabolite/selected molecule that causes 50% displacement of signal.
Table 1: Data generated from a competitive microtiter plate assay for JWH synthetic cannabinoids and metabolites, employing antiserum raised to Immunogen II (Hapten B-BTG) and conjugate (Hapten A-HRP) as detection reagent. (b) In a similar manner to that described in Example 19(a), the wells of a 96 well microtiter plate were coated with the Ig fraction of the antiserum raised to Immunogen II ([…]). Conjugate (Hapten A-HRP) was employed as a detection reagent.

Antibody to Immunogen II = experiment: Competitive ELISA (Example 36), antibody RS1833B12, tracer ESC4555/LK959, standard JWH-018; assay type: binding, sheep
Summary of the method: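 Sheep antiserum IgG coated on plates overnight at 4°C; standard or cross-reactant competes with hapten-HRP conjugate in Tris buffer pH 7.2 for 1 h at 25°C.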

[2] = Table 1, 40 ng/ml highest concentration tested
[3] = Table 1, CR based on 100% for JWH-018
[4] = Cross-reactants at 100 ng/ml, Antibody to Immunogen II

Compound	% Cross-reactivity [1, 3]	%B/B0 (Antibody to Immunogen II; [4])	IC50 [1, 2]	also measured
O=C(c1cccc2ccccc12)c1c[nH]c2ccccc12 [3-(1-naphthoyl)-1H-Indole, 3-(1-naphthoyl)-1H-indole]	<< 5.28%	99.18%		IC50 ng/ml [1, 2]: >> 40 ng/ml
CCCCCn1cc(C(=O)c2cccc3ccccc23)c2c(O)cccc21 [JWH-018 4-hydroxyindole metabolite]	23.03%	29.49%	9.16 ng/mL	
CCCCCn1cc(C(=O)c2cccc3ccccc23)c2cc(O)ccc21 [JWH-018 5-hydroxyindole metabolite]	130.25%	12.14%	1.62 ng/mL	
CCCCCn1cc(C(=O)c2cccc3ccccc23)c2ccc(O)cc21 [JWH-018 6-hydroxyindole metabolite]	215.31%	24.39%	0.98 ng/mL	
O=C(c1cccc2ccccc12)c1cn(CCCCCO)c2ccccc12 [JWH-018 N-(5-hydroxypentyl) metabolite]	183.48%	53.38%	1.15 ng/mL	
O=C(O)CCCCn1cc(C(=O)c2cccc3ccccc23)c2ccccc21 [JWH-018 N-pentanoic acid metabolite]	38.50%	85.61%	5.48 ng/mL	
CCCCCn1cc(C(=O)c2cccc3ccccc23)c2ccccc21 [JWH-018]	100.00%	9.29%	2.11 ng/mL	IC50 ([1]; first Table 4, Immunogen II): 1.97 ng/mL; % Cross-reactivity ([1]; first Table 4, Immunogen II, JWH-018 = 100): 100.00%; %B/B0 (Antibody to Immunogen II; JWH-018 standard 0.625 ng/ml): 68%; %B/B0 (Antibody to Immunogen II; JWH-018 standard 1.25 ng/ml): 53%; %B/B0 (Antibody to Immunogen II; JWH-018 standard 2.5 ng/ml): 34%; %B/B0 (Antibody to Immunogen II; JWH-018 standard 5 ng/ml): 25%; %B/B0 (Antibody to Immunogen II; JWH-018 standard 10 ng/ml): 17%; %B/B0 (Antibody to Immunogen II; JWH-018 standard 20 ng/ml): 13%; %B/B0 (Antibody to Immunogen II; JWH-018 standard 40 ng/ml): 10%; IC50 (Antibody to Immunogen II; Table 3a standard curve, standard concentration which produces 50% B/B0): 1.333 ng/mL
CCCCn1cc(C(=O)c2cccc3ccccc23)c2ccccc21 [JWH-073]	135.26%	15.24%	1.56 ng/mL	
CCCCCn1cc(C(=O)c2ccc(Cl)c3ccccc23)c2ccccc21 [JWH-398]	12.02%	30.31%	17.55 ng/mL	
O=C(c1cccc2ccccc12)c1cn(CCN2CCOCC2)c2ccccc12 [WIN 55,225 (other name JWH-200), JWH-200]	127.11%	54.02%	1.66 ng/mL	
